{"source": "patent US20240343699A1", "about": "“DERIVATIVES OF SUBSTITUTED MORPHOLINES AND USES THEREOF” (Supernus Pharmaceuticals, Inc., priority 2023, published 2024)", "key": {"Binding assays": {"assay": "Binding assays", "conditions": "1.0E−05 M", "method": "A study was conducted to test COMPOUND D and COMPOUND E in Binding and enzyme and uptake assays.\nCOMPOUND D and COMPOUND E were tested at 1.0E-05 M.\nThe results are expressed as a percent of control specific binding and as a percent inhibition of control specific binding\nThe IC50 values (concentration causing a half-maximal inhibition of control specific binding) and Hill coefficients (nH) were determined by non-linear regression analysis of the competition curves generated with mean replicate values using Hill equation curve fitting […]\nwhere Y=specific binding, A=left asymptote of the curve, D=right asymptote of the curve, C=compound concentration, C50=IC50, and nH=slope factor. This analysis was performed using software developed at Cerep (Hill software) and validated by comparison with data generated by the commercial software SigmaPlot® 4.0 for Windows® (© 1997 by SPSS Inc.).\nThe inhibition constants (Ki) were calculated using the Cheng Prusoff equation where L=concentration of radioligand in the assay, and KD=affinity of the radioligand for the receptor. A scatchard plot is used to determine the KD.\nIn Vitro Pharmacology. Results showing an inhibition (or stimulation for assays run in basal conditions) higher than […] were considered to represent significant effects of the test compounds. Results showing an inhibition (or stimulation) between 25% and 50% are indicative of weak to moderate effects. Results showing an inhibition (or stimulation) lower than […] were not considered significant and mostly attributable to variability of the signal around the control level."}, "[1]": {"type": "in vitro ADME", "conditions": "Rat plasma, wet ice bath", "method": "A study was conducted to examine the bioanalytical data for compounds in Rat plasma. […] Frozen Sprague Dawley rat (male pooled) and human (mixed gender) plasma was utilized for the study. Test compounds were dissolved in dimethyl sulfoxide (DMSO) to make a 10 mM stock solution. A working solution was made with MeOH/water. […]"}, "[2]": {"assay": "Preclinical PK after intraperitoneal dosing of COMPOUND D, COMPOUND B and viloxazine", "type": "in vivo, mouse", "conditions": "COMPOUND D IP 10.978 mg/kg; for Cmax: read-out: Cmax, plasma COMPOUND D"}}, "note": "Several values for one entry are separate records, joined by “and”; a condition that tells them apart may be missing. Identical values can stand only once. Like-named read-outs stand apart in the source and are kept apart here.", "data": [{"smiles": "CCOc1ccccc1OCC1CN(C(=O)OC(C)OC(=O)[C@H](N)C(C)C)CCO1", "note": "(stereo partly drawn) [COMPOUND D]", "values": [{"measurement": "inhibition, 5-HT2B(h) (antagonist effect)", "setting": "Binding assays", "value": 81.5, "unit": "%"}, {"measurement": "inhibition, 5-HT2c(h) (antagonist effect)", "setting": "Binding assays", "value": 72.4, "unit": "%"}, {"measurement": "inhibition, 5-HT4e(h) (antagonist radioligand)", "setting": "Binding assays", "value": 78.6, "unit": "%"}, {"measurement": "inhibition, norepinephrine transporter(h) (antagonist radioligand)", "setting": "Binding assays", "value": 78.4, "unit": "%"}, {"measurement": "Mean peak area ratio", "setting": "[1]; 5% Paraoxon ethyl as stabilizer, HQC, 0 hr sample", "value": 1.83}, {"measurement": "% stability", "setting": "[1]; 5% Paraoxon ethyl as stabilizer, HQC, 1 hr", "value": 58.7, "unit": "%"}, {"measurement": "Mean peak area ratio", "setting": "[1]; 5% Paraoxon ethyl as stabilizer, HQC, 1 hr sample", "value": 1.07}, {"measurement": "% stability", "setting": "[1]; 5% Paraoxon ethyl as stabilizer, HQC, 2 hr", "value": 26.0, "unit": "%"}, {"measurement": "Mean peak area ratio", "setting": "[1]; 5% Paraoxon ethyl as stabilizer, HQC, 2 hr sample", "value": 0.47}, {"measurement": "Mean peak area ratio", "setting": "[1]; 5% Paraoxon ethyl as stabilizer, LQC, 0 hr sample", "value": 0.00608}, {"measurement": "% stability", "setting": "[1]; 5% Paraoxon ethyl as stabilizer, LQC, 1 hr", "value": 57.3, "unit": "%"}, {"measurement": "Mean peak area ratio", "setting": "[1]; 5% Paraoxon ethyl as stabilizer, LQC, 1 hr sample", "value": 0.00348}, {"measurement": "% stability", "setting": "[1]; 5% Paraoxon ethyl as stabilizer, LQC, 2 hr", "value": 36.9, "unit": "%"}, {"measurement": "Mean peak area ratio", "setting": "[1]; 5% Paraoxon ethyl as stabilizer, LQC, 2 hr sample", "value": 0.00224}, {"measurement": "Mean peak area ratio", "setting": "[1]; No stabilizer, HQC, 0 hr sample", "value": 0.67}, {"measurement": "% stability", "setting": "[1]; No stabilizer, HQC, 1 hr", "value": 31.2, "unit": "%"}, {"measurement": "Mean peak area ratio", "setting": "[1]; No stabilizer, HQC, 1 hr sample", "value": 0.21}, {"measurement": "% stability", "setting": "[1]; No stabilizer, HQC, 2 hr", "value": 8.0, "unit": "%"}, {"measurement": "Mean peak area ratio", "setting": "[1]; No stabilizer, HQC, 2 hr sample", "value": 0.05}, {"measurement": "Mean peak area ratio", "setting": "[1]; No stabilizer, LQC, 0 hr sample", "value": 0.00292}, {"measurement": "% stability", "setting": "[1]; No stabilizer, LQC, 1 hr", "value": 30.1, "unit": "%"}, {"measurement": "Mean peak area ratio", "setting": "[1]; No stabilizer, LQC, 1 hr sample", "value": 0.00088}, {"measurement": "% stability", "setting": "[1]; No stabilizer, LQC, 2 hr", "value": 6.8, "unit": "%"}, {"measurement": "Mean peak area ratio", "setting": "[1]; No stabilizer, LQC, 2 hr sample", "value": 0.0002}, {"measurement": "concentration at 0.25 h", "setting": "[2]; CD-1, mouse, plasma, ip, 10.978 mg/kg, 0.250 h, individual mice, read-out: Plasma concentration of COMPOUND D", "value": 3.44, "unit": "ng/mL"}, {"measurement": "concentration at 0.5 h", "setting": "[2]; CD-1, mouse, plasma, ip, 10.978 mg/kg, 0.500 h, individual mice, read-out: Plasma concentration of COMPOUND D", "value": 1.12, "unit": "ng/mL"}, {"measurement": "concentration at 1 h", "setting": "[2]; CD-1, mouse, plasma, ip, 10.978 mg/kg, 1.00 h, individual mice", "value": 5.74, "unit": "ng/mL"}, {"measurement": "concentration at 24 h", "setting": "[2]; CD-1, mouse, plasma, ip, 10.978 mg/kg, 24.0 h, individual mice", "value": 3.48, "unit": "ng/mL"}, {"measurement": "Cmax", "setting": "[2]; CD-1, mouse, plasma, ip, 10.978 mg/kg, individual mice", "value": 5.74, "unit": "ng/mL"}, {"measurement": "AUC(0-t)", "setting": "[2]; CD-1, mouse, plasma, ip, 10.978 mg/kg, mean, read-out: AUC0-last, plasma COMPOUND D", "value": 42.3, "unit": "ng·h/mL"}, {"measurement": "Cmax", "setting": "[2]; CD-1, mouse, plasma, ip, 10.978 mg/kg, mean", "value": 4.61, "unit": "ng/mL"}, {"measurement": "MRT last", "setting": "[2]; CD-1, mouse, plasma, ip, 10.978 mg/kg, mean, read-out: MRT0-last, plasma COMPOUND D", "value": 6.5, "unit": "h"}, {"measurement": "Tmax", "setting": "[2]; CD-1, mouse, plasma, ip, 10.978 mg/kg, mean, read-out: Tmax, plasma COMPOUND D", "value": 12.5, "unit": "h"}, {"measurement": "Plasma concentration of COMPOUND D", "setting": "[2]; 0.250 h, individual mice, 10.978 mg/kg", "value": "BQL"}, {"measurement": "Plasma concentration of COMPOUND D", "setting": "[2]; 0.500 h, individual mice, 10.978 mg/kg", "value": "BQL"}, {"measurement": "Plasma concentration of COMPOUND D", "setting": "[2]; 1.00 h, individual mice, 10.978 mg/kg", "value": "BQL"}, {"measurement": "Plasma concentration of COMPOUND D", "setting": "[2]; 2.00 h, individual mice", "value": "BQL"}, {"measurement": "Plasma concentration of COMPOUND D", "setting": "[2]; 4.00 h, individual mice", "value": "BQL"}, {"measurement": "Plasma concentration of COMPOUND D", "setting": "[2]; 8.00 h, individual mice", "value": "BQL"}, {"measurement": "Plasma concentration of Viloxazine", "setting": "[2]; 8.00 h, individual mice, 10.978 mg/kg", "value": "BQL"}, {"measurement": "Plasma concentration of Viloxazine", "setting": "[2]; 24.0 h, individual mice", "value": "BQL"}, {"measurement": "Plasma concentration of COMPOUND D", "setting": "[2]; 24.0 h, individual mice, 10.978 mg/kg", "value": "BQL"}, {"measurement": "AUC0-last, plasma COMPOUND D", "setting": "[2]; individual mice, 10.978 mg/kg", "value": "2.00 ng·h/mL and 82.6 ng·h/mL"}, {"measurement": "Cmax, plasma COMPOUND D", "setting": "[2]; individual mice, 10.978 mg/kg", "value": 3.48, "unit": "ng/mL"}, {"measurement": "MRT0-last, plasma COMPOUND D", "setting": "[2]; individual mice, 10.978 mg/kg", "value": "0.860 h and 12.1 h"}, {"measurement": "Tlast, plasma COMPOUND D", "setting": "[2]; individual mice, 10.978 mg/kg", "value": "1.00 h and 24.0 h"}, {"measurement": "Tmax, plasma COMPOUND D", "setting": "[2]; individual mice, 10.978 mg/kg", "value": "1.00 h and 24.0 h"}, {"measurement": "Tlast, plasma COMPOUND D", "setting": "[2]; mean", "value": 12.5, "unit": "h"}]}]}
